48 compounds from US11384079B2, “6-5 fused rings as C5a inhibitors” (CHEMOCENTRYX, INC., priority 2017, dated 2022) can be followed below.

By IC50 is commonly meant the concentration needed to halve the response being measured.

The assay addresses T1, C5aR (Homo sapiens, UniProt P21730).
T1 construct: U937 cells are a monocytic cell line which express C5aR; host or cells: U937 cells (cAMP treated) or isolated neutrophils
T1 sequence (P21730 1-350): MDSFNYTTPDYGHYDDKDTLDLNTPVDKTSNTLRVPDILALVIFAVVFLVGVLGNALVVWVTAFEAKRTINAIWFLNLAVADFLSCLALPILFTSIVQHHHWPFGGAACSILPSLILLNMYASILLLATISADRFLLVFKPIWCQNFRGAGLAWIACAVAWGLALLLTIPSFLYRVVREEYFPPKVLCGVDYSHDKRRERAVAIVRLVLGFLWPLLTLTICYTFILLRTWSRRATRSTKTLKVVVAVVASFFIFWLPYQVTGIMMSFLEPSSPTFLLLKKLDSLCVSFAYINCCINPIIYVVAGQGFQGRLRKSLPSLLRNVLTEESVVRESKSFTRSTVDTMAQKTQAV
Briefly: chemotaxis assay (C5aR mediated migration). Type of assay: cell-based. To be noted: migration of U937 or neutrophil cells toward C5a (0.03 nM), 1.5 hours at 37° C., read-out: Mig IC50. On the procedure:
U937 cells are a monocytic cell line which express C5aR, and are available from ATCC (VA). […] Cells were grown under 5% CO2/95% air, 100% humidity at 37° C. and subcultured twice weekly at 1:6 (cells were cultured at a density range of 1×10^5 to 2×10^6 cells/mL) and harvested at 1×10^6 cells/mL. Prior to assay, cells are treated overnight with 0.5 mM of cyclic AMP (Sigma, Ohio) and washed once prior to use. cAMP treated U937 cells can be used in C5aR ligand binding and functional assays.
Optionally, human or murine neutrophils can be used to assay for compound activity. Neutrophils may be isolated from fresh human blood using density separation and centrifugation. Briefly, whole blood is incubated with equal parts 3% dextran and allowed to separate for 45 minutes. After separation, the top layer is layered on top of 15 mls of Ficoll (15 mls of Ficoll for every 30 mls of blood suspension) and centrifuged for 30 minutes at 400×g with no brake. The pellet at the bottom of the tube is then isolated and resuspended into PharmLyse RBC Lysis Buffer (BD Biosciences, San Jose, Calif.) after which the sample is again centrifuged for 10 minutes at 400×g with brake. The remaining cell pellet is resuspended as appropriate and consists of isolated neutrophils.
Optionally, compounds may be further assayed for their ability to inhibit chemotaxis in cells. Chemotaxis assays are performed using 5 μm pore polycarbonate, polyvinylpyrrolidone-coated filters in 96-well chemotaxis chambers (Neuroprobe; Gaithersburg, Md.) using chemotaxis buffer (Hank's balanced salt solution (HBSS) and 1% FBS). C5aR ligands (i.e., C5a, R&D Systems; Minneapolis, Minn.) are use to evaluate compound mediated inhibition of C5aR mediated migration. Other chemokines (i.e., SDF-1α; R&D Systems; Minneapolis, Minn.) are used as specificity controls. […] The chambers are incubated 1.5 hours at 37° C., and the number of cells in the lower chamber quantified either by direct cell counts in five high powered fields per well or by the CyQuant assay (Molecular Probes), a fluorescent dye method that measures nucleic acid content and microscopic observation.

Regarding `Cc1cccc(C)c1-n1nc2c(c1-c1ncc(Cl)c3[nH]ccc13)CN(c1ncc(C3CC3)cn1)CC2` [Example 1.001], the IC50 was in the range of 0.005 to 0.05 µM.

Take `COc1c(F)cc(-c2c3c(nn2-c2c(C)cccc2F)CCN(c2ncc(C(F)(F)F)cn2)C3)c2cc[nH]c12` [Example 1.002]: the IC50 was in the range of 0.005 to 0.05 µM.

Turning to `COc1c(F)cc(-c2c3c(nn2-c2c(C)cccc2C)CCN(c2ncc(C4CC4)cn2)C3)c2cc[nH]c12` [Example 1.003], the half-maximal inhibitory concentration (IC50) was below 0.005 µM.

With `COc1c(F)cc(-c2c3c(nn2-c2c(C)cccc2C)CCN(c2ncc(C(F)(F)F)cn2)C3)c2cc[nH]c12` [Example 1.004], the half-inhibitory concentration (IC50) is 0.005 to 0.05 µM.

As to `CCc1cccc(CC)c1-n1nc2c(c1-c1nccc3[nH]cc(Cl)c13)CN(c1ncc(C(F)(F)F)cn1)CC2` [Example 1.005], the IC50 is below 0.005 µM.

As for `COc1cccc(C)c1-n1nc2c(c1-c1ccc3[nH]ccc3c1)CN(c1cc(C(C)(C)C)ccc1C)CC2` [Example 1.006], the IC50 lay within 0.005 to 0.05 µM.

Turning to `COc1cccc(F)c1-n1nc2c(c1-c1cc(F)c(OC)c3[nH]ccc13)CN(c1ncc(C(F)(F)F)cn1)CC2` [Example 1.007], the IC50 was 0.05 to 0.5 µM.

As for `CCc1cccc(CC)c1-n1nc2c(c1-c1ncc(Cl)c3[nH]ccc13)CN(c1ncc(C(F)(F)F)cn1)CC2` [Example 1.008], the half-inhibitory concentration (IC50) was below 0.005 µM.

As to `CCc1cccc(CC)c1-n1nc2c(c1-c1ccc3[nH]cnc3c1Cl)CN(c1ncc(C(F)(F)F)cn1)CC2` [Example 1.009], the IC50 was 0.05 to 0.5 µM.

In the case of `CCc1cccc(CC)c1-n1nc2c(c1-c1ccc3[nH]ccc3n1)CN(c1ncc(C(F)(F)F)cn1)CC2` [Example 1.010], the concentration for half-maximal inhibition (IC50) is above 0.5 µM.

For the compound `CCc1cccc(CC)c1-n1nc2c(c1-c1cnc3[nH]ccc3c1)CN(c1ncc(C(F)(F)F)cn1)CC2` [Example 1.011], the half-maximal inhibitory concentration (IC50) was above 0.5 µM.

Consider `CCc1cccc(CC)c1-n1nc2c(c1-c1cc3cc[nH]c3cn1)CN(c1ncc(C(F)(F)F)cn1)CC2` [Example 1.012], for which the IC50 lay within 0.05 to 0.5 µM.

For `CCc1cccc(CC)c1-n1nc2c(c1-c1ncc(OC)c3[nH]ccc13)CN(c1ncc(C(F)(F)F)cn1)CC2` [Example 1.013], the half-inhibitory concentration (IC50) fell in the range of 0.005 to 0.05 µM.

With `CCc1cccc(CC)c1-n1nc2c(c1-c1c(F)cnc3[nH]ccc13)CN(c1ncc(C(F)(F)F)cn1)CC2` [Example 1.014], the IC50 is 0.005 to 0.05 µM.

Take `CCc1cccc(CC)c1-n1nc2c(c1-c1nccc3[nH]ncc13)CN(c1ncc(C(F)(F)F)cn1)CC2` [Example 1.015]: the concentration for half-maximal inhibition (IC50) was 0.005 to 0.05 µM.

Regarding `CCc1cccc(CC)c1-n1nc2c(c1-c1ccc3[nH]c(C)nc3c1)CN(c1ncc(C(F)(F)F)cn1)CC2` [Example 1.016], the IC50 is above 0.5 µM.

For `CCc1cccc(CC)c1-n1nc2c(c1-c1ccc3[nH]cnc3c1)CN(c1ncc(C(F)(F)F)cn1)CC2` [Example 1.017], the IC50 was above 0.5 µM.

Regarding `Cc1cccc(OCC(C)C)c1-n1nc2c(c1-c1ccc3[nH]ccc3c1)CN(C(=O)OC(C)(C)C)CC2` [Example 1.018], the IC50 lay in the range of 0.005 to 0.05 µM.

For `CCc1cccc(CC)c1-n1nc2c(c1-c1cc(F)c(OC)c3[nH]c(F)nc13)CN(c1ncc(C(F)(F)F)cn1)CC2` [Example 1.019], the IC50 was 0.005 to 0.05 µM.

`CCc1cccc(CC)c1-n1nc2c(c1-c1ncc(C)c3[nH]ccc13)CN(c1ncc(C(F)(F)F)cn1)CC2` [Example 1.020]: the half-maximal inhibitory concentration (IC50) is below 0.005 µM.

In the case of `CCc1cccc(CC)c1-n1nc2c(c1-c1cc(F)c(OC)c3[nH]c(Cl)nc13)CN(c1ncc(C(F)(F)F)cn1)CC2` [Example 1.021], the concentration for half-maximal inhibition (IC50) was in the range of 0.05 to 0.5 µM.

As to `CCc1cccc(CC)c1-n1nc2c(c1-c1cncc3[nH]ccc13)CN(c1ncc(C(F)(F)F)cn1)CC2` [Example 1.022], the half-inhibitory concentration (IC50) fell in the range of 0.05 to 0.5 µM.

With `CCc1cccc(CC)c1-n1nc2c(c1-c1cc(F)c(OC)c3[nH]cc(F)c13)CN(c1ncc(C(F)(F)F)cn1)CC2` [Example 1.023], the half-maximal inhibitory concentration (IC50) was below 0.005 µM.

Regarding `CCOc1c(F)cc(-c2c3c(nn2-c2c(CC)cccc2CC)CCN(c2ncc(C(F)(F)F)cn2)C3)c2cc[nH]c12` [Example 1.024], the half-maximal inhibitory concentration (IC50) is below 0.005 µM.

Turning to `CCc1cccc(CC)c1-n1nc2c(c1-c1cc(Cl)cc3[nH]cnc13)CN(c1ncc(C(F)(F)F)cn1)CC2` [Example 1.025], the IC50 lay within 0.05 to 0.5 µM.

With `CCc1cccc(CC)c1-n1nc2c(c1-c1ncnc3[nH]ccc13)CN(c1ncc(C(F)(F)F)cn1)CC2` [Example 1.026], the IC50 fell in the range of 0.005 to 0.05 µM.

As for `CCc1cccc(CC)c1-n1nc2c(c1-c1cnc(C)c3[nH]ccc13)CN(c1ncc(C(F)(F)F)cn1)CC2` [Example 1.027], the 50% inhibitory concentration (IC50) lay in the range of 0.005 to 0.05 µM.

For `CCc1cccc(CC)c1-n1nc2c(c1-c1cc(F)c(OC)c3[nH]c(CO)nc13)CN(c1ncc(C(F)(F)F)cn1)CC2` [Example 1.028], the IC50 is above 0.5 µM.

Take `CCc1cccc(CC)c1-n1nc2c(c1-c1ccnc3[nH]ccc13)CN(c1ncc(C(F)(F)F)cn1)CC2` [Example 1.029]: the IC50 fell in the range of 0.005 to 0.05 µM.

As to `CCc1cccc(CC)c1-n1nc2c(c1-c1cc(F)c(CO)c3[nH]cnc13)CN(c1ncc(C(F)(F)F)cn1)CC2` [Example 1.030], the 50% inhibitory concentration (IC50) was below 0.005 µM.

As for `CCc1cccc(CC)c1-n1nc2c(c1-c1nccc3[nH]ccc13)CN(c1ncc(C(F)(F)F)cn1)CC2` [Example 1.031], the IC50 was in the range of 0.005 to 0.05 µM.

For `CCc1cccc(CC)c1-n1nc2c(c1-c1cc(F)c(OC)c3[nH]cc(Cl)c13)CN(c1ncc(C(F)(F)F)cn1)CC2` [Example 1.032], the half-inhibitory concentration (IC50) was below 0.005 µM.

Turning to `CCc1cccc(CC)c1-n1nc2c(c1-c1cc(F)c(OC)c3[nH]ccc13)C(=O)N(c1ncc(C(F)(F)F)cn1)CC2` [Example 1.033], the IC50 lay in the range of 0.05 to 0.5 µM.

On to `CCc1cccc(CC)c1-n1nc2c(c1-c1ccc(Cl)c3[nH]ccc13)C(=O)N(c1ncc(C(F)(F)F)cn1)CC2` [Example 1.034], for which the IC50 was above 0.5 µM.

With `CCc1cccc(CC)c1-n1nc2c(c1-c1ccc(Cl)c3[nH]cnc13)CN(c1ncc(C(F)(F)F)cn1)CC2` [Example 1.035], the IC50 was below 0.005 µM.

Consider `CCc1cccc(CC)c1-n1nc2c(c1-c1cc(F)c(OC)c3[nH]cnc13)CN(c1ncc(C(F)(F)F)cn1)CC2` [Example 1.036], for which the IC50 is below 0.005 µM.

Regarding `CCc1cccc(CC)c1-n1nc2c(c1-c1ccc3[nH]c(C)nc3c1Cl)CN(c1ncc(C(F)(F)F)cn1)CC2` [Example 1.037], the half-maximal inhibitory concentration (IC50) was 0.005 to 0.05 µM.

On to `CCc1cccc(CC)c1-n1nc2c(c1-c1ccc(Cl)c3[nH]c(C)nc13)CN(c1ncc(C(F)(F)F)cn1)CC2` [Example 1.038], for which the 50% inhibitory concentration (IC50) lay in the range of 0.005 to 0.05 µM.

Consider `CCc1cccc(CC)c1-n1nc2c(c1-c1ccc3[nH]ccc3c1)CN(c1ncc(C(F)(F)F)cn1)CC2` [Example 1.039], for which the IC50 lay in the range of 0.005 to 0.05 µM.

Turning to `CCc1cccc(CC)c1-n1nc2c(c1-c1cccc3[nH]ccc13)CN(c1ncc(C(F)(F)F)cn1)CC2` [Example 1.040], the IC50 is 0.005 to 0.05 µM.

As to `CCc1cccc(CC)c1-n1nc2c(c1-c1cc(F)c(Cl)c3[nH]ncc13)CN(c1ncc(C(F)(F)F)cn1)CC2` [Example 1.041], the IC50 was below 0.005 µM.

As to `CCc1cccc(CC)c1-n1nc2c(c1-c1cccc3[nH]c(C(F)(F)F)nc13)CN(c1ncc(C(F)(F)F)cn1)CC2` [Example 1.042], the IC50 lay in the range of 0.05 to 0.5 µM.

Regarding `CCc1cccc(CC)c1-n1nc2c(c1-c1cccc3[nH]cnc13)CN(c1ncc(C(F)(F)F)cn1)CC2` [Example 1.043], the IC50 fell in the range of 0.005 to 0.05 µM.

For `CCc1cccc(CC)c1-n1nc2c(c1-c1cc(Cl)c(OC)c3[nH]ccc13)CN(c1ncc(C(F)(F)F)cn1)CC2` [Example 1.044], the half-inhibitory concentration (IC50) is below 0.005 µM.

For `CCc1cccc(CC)c1-n1nc2c(c1-c1c(F)cc(OC)c3[nH]ccc13)CN(c1ncc(C(F)(F)F)cc1F)CC2` [Example 1.045], the IC50 was below 0.005 µM.

Consider `CCc1cccc(CC)c1-n1nc2c(c1-c1c(F)cc(OC)c3[nH]ccc13)CN(c1ncc(C(F)(F)F)cn1)CC2` [Example 1.046], for which the IC50 was below 0.005 µM.

In the case of `CCc1cccc(CC)c1-n1nc2c(c1-c1ccc(C(=O)N(C)C)c3[nH]ccc13)CN(c1ncc(C(F)(F)F)cn1)CC2` [Example 1.047], the concentration for half-maximal inhibition (IC50) lay in the range of 0.05 to 0.5 µM.

As for `CCc1cccc(CC)c1-n1nc2c(c1-c1c(F)cc(Cl)c3[nH]ccc13)CN(c1ncc(OC(C)C)cn1)CC2` [Example 1.048], the IC50 is below 0.005 µM.
